Measurements published in ChEMBL document CHEMBL3885881, “DrugMatrix”.

Species: Rattus norvegicus
Test: DrugMatrix - Regimen: Daily Repeat
Format: toxicity, organism-based, Sprague-Dawley
Set-up: regimen Daily Repeat, gender Male, age 6-8 weeks
Conditions: in vivo, po, route oral GAVAGE, vehicle 100 % WATER; for BASOPHIL / EOSINOPHIL / ERYTHROCYTE COUNT / HEMATOCRIT / HEMOGLOBIN / LEUKOCYTE COUNT / LYMPHOCYTE / MEAN CORPUSCULAR HEMOGLOBIN / MEAN CORPUSCULAR HEMOGLOBIN CONCENTRATION / MEAN CORPUSCULAR VOLUME / MONOCYTE / NEUTROPHIL / PLATELET COUNT: tissue Blood; for ALANINE AMINOTRANSFERASE / ALBUMIN / ALKALINE PHOSPHATASE / ASPARTATE AMINOTRANSFERASE / BLOOD UREA NITROGEN / CHLORIDE / CHOLESTEROL / CREATINE PHOSPHOKINASE / CREATININE / GLUCOSE / PHOSPHORUS / POTASSIUM / SODIUM / TOTAL BILIRUBIN / TOTAL PROTEIN: tissue Plasma
[1] = 100 mg/kg, 120 h, dose level Low, time 5 day
[2] = 1000 mg/kg, 72 h, dose level High, time 3 day
[3] = 1000 mg/kg, 120 h, dose level High, time 5 day

## Oc1cccc(O)c1O [PYROGALLOL]
[1]
  BASOPHIL: 0%
  EOSINOPHIL: 0%
  ERYTHROCYTE COUNT: 6.06 x10E6/uL
  HEMATOCRIT: 36.63%
  HEMOGLOBIN: 14.83 G/DL
  LEUKOCYTE COUNT: 14.27 x10E3/uL
  LYMPHOCYTE: 90.67%
  MEAN CORPUSCULAR HEMOGLOBIN: 24.53 pg
  MEAN CORPUSCULAR HEMOGLOBIN CONCENTRATION: 40.53 G/DL
  MEAN CORPUSCULAR VOLUME: 60.5 fL
  MONOCYTE: 2.33%
  NEUTROPHIL: 7%
  PLATELET COUNT: 1156 x10E3/uL
  ALANINE AMINOTRANSFERASE: 34.67 u/L
  ALBUMIN: 3.8 G/DL
  ALKALINE PHOSPHATASE: 375.67 u/L
  ASPARTATE AMINOTRANSFERASE: 59 u/L
  BLOOD UREA NITROGEN: 14 mg/dL
  CHLORIDE: 103.67 MEQ/L
  CHOLESTEROL: 67.33 mg/dL
  CREATINE PHOSPHOKINASE: 95.67 u/L
  CREATININE: 0.6 mg/dL
  GLUCOSE: 184.67 mg/dL
  PHOSPHORUS: 11.97 mg/dL
  POTASSIUM: 6.8 MEQ/L
  SODIUM: 151.67 MEQ/L
  TOTAL BILIRUBIN: 0.5 mg/dL
  TOTAL PROTEIN: 6.87 G/DL
[2]
  BASOPHIL: 0%
  EOSINOPHIL: 0.67%
  ERYTHROCYTE COUNT: 4.74 x10E6/uL
  HEMATOCRIT: 27.07%
  HEMOGLOBIN: 11.3 G/DL
  LEUKOCYTE COUNT: 18.97 x10E3/uL
  LYMPHOCYTE: 64%
  MEAN CORPUSCULAR HEMOGLOBIN: 23.87 pg
  MEAN CORPUSCULAR HEMOGLOBIN CONCENTRATION: 41.93 G/DL
  MEAN CORPUSCULAR VOLUME: 57.07 fL
  MONOCYTE: 1%
  NEUTROPHIL: 34.33%
  PLATELET COUNT: 1411 x10E3/uL
  ALANINE AMINOTRANSFERASE: 107.67 u/L
  ALBUMIN: 3.83 G/DL
  ALKALINE PHOSPHATASE: 223 u/L
  ASPARTATE AMINOTRANSFERASE: 109.33 u/L
  BLOOD UREA NITROGEN: 10.33 mg/dL
  CHLORIDE: 101.67 MEQ/L
  CHOLESTEROL: 67.33 mg/dL
  CREATINE PHOSPHOKINASE: 171 u/L
  CREATININE: 0.63 mg/dL
  GLUCOSE: 206.33 mg/dL
  PHOSPHORUS: 12.3 mg/dL
  POTASSIUM: 6.63 MEQ/L
  SODIUM: 149 MEQ/L
  TOTAL BILIRUBIN: 1.13 mg/dL
  TOTAL PROTEIN: 6.83 G/DL
[3]
  BASOPHIL: 0%
  EOSINOPHIL: 0%
  ERYTHROCYTE COUNT: 3.96 x10E6/uL
  HEMATOCRIT: 24.15%
  HEMOGLOBIN: 9.8 G/DL
  LEUKOCYTE COUNT: 13 x10E3/uL
  LYMPHOCYTE: 85.5%
  MEAN CORPUSCULAR HEMOGLOBIN: 24.9 pg
  MEAN CORPUSCULAR HEMOGLOBIN CONCENTRATION: 40.55 G/DL
  MEAN CORPUSCULAR VOLUME: 61.35 fL
  MONOCYTE: 2.5%
  NEUTROPHIL: 12%
  PLATELET COUNT: 1586 x10E3/uL
  ALANINE AMINOTRANSFERASE: 45 u/L
  ALBUMIN: 3.85 G/DL
  ALKALINE PHOSPHATASE: 303 u/L
  ASPARTATE AMINOTRANSFERASE: 67 u/L
  BLOOD UREA NITROGEN: 12 mg/dL
  CHLORIDE: 105 MEQ/L
  CHOLESTEROL: 49.5 mg/dL
  CREATINE PHOSPHOKINASE: 75 u/L
  CREATININE: 0.45 mg/dL
  GLUCOSE: 223.5 mg/dL
  PHOSPHORUS: 12.75 mg/dL
  POTASSIUM: 7.2 MEQ/L
  SODIUM: 148.5 MEQ/L
  TOTAL BILIRUBIN: 0.9 mg/dL
  TOTAL PROTEIN: 7.05 G/DL
